Experimental data as given in US20250290117A1, “MOLECULAR PHENOTYPIC ANTIMICROBIAL SUSCEPTIBILITY TESTING” (priority 2024, published 2025).

Experiments:
Format in all cases: cell-based
Escherichia coli [1] = test: Traditional culture-based antimicrobial susceptibility test
Text: Table 3 illustrates the results of an example antimicrobial agent susceptibility test of the current application versus a traditional culture-based antimicrobial agent susceptibility test for multiple Escherichia coli isolates, in accordance with one or more embodiments of the disclosure. These specimens underwent extraction or DNA purification prior to PCR. As in Tables 1 and 2, the results of the test of the current application are similar to the results from the traditional test. […]
Table 8 illustrates the results of an example antimicrobial agent susceptibility test of the current application versus a traditional culture-based antimicrobial agent susceptibility test for a low level positive with <10,000 cells/mL in the original specimen. These specimens were tested with direct PCR (e.g., no extraction DNA purification step prior to PCR) after 16 hours of incubation. As in Tables 1, 2, 3, 5, and 7, the results of the test are similar to the traditional test. […]

Escherichia coli [2] = test: Molecular phenotypic antimicrobial susceptibility test (extraction or DNA purification prior to PCR)
Method in brief: (§1)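 For direct PCR, exposed cultures are lysed in buffer in the thermal cycler, whereas purified runs first isolate DNA with magnetic beads. Pathogen-specific or universal targets are amplified semi-quantitatively after 12-16 h of antimicrobial exposure in Mueller Hinton Broth.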

[3] = system: pathogens of clinical samples; test: Molecular phenotypic antimicrobial susceptibility test of clinical samples, extraction DNA purification step prior to PCR (Table 6)
Method in brief: as §1

[4] = system: pathogens of clinical samples; test: Molecular phenotypic antimicrobial susceptibility test of clinical samples, direct PCR without a separate DNA purification step (Table 6)
Method in brief: as §1

[5] = E. coli, clinical sample of r10-r24
[6] = E. coli, clinical sample of r158-r172
[7] = E. faecalis, clinical sample of r93-r99
[8] = E. faecalis, clinical sample of r100-r106
[9] = E. faecalis, clinical sample of r107-r113
[10] = E. faecalis, clinical sample of r114-r120
[11] = E. faecalis, clinical sample of r151-r157
[12] = K. aerogenes, clinical sample of r136-r150
[13] = K. pneumoniae, clinical sample of r121-r135
[14] = M. morganii, clinical sample of r55-r69
[15] = M. morganii, clinical sample of r70-r84
[16] = P. mirabilis, clinical sample of r25-r39
[17] = P. mirabilis, clinical sample of r40-r54

SMILES: O=C(O)c1cn(C2CC2)c2cc(N3CCNCC3)c(F)cc2c1=O [Ciprofloxacin]
- Traditional Culture Result (Escherichia coli [1]; E. coli isolate 1 (Table 3)): Resistant
- Traditional Culture Result (Escherichia coli [1]; E. coli isolate 2 (Table 3)): Resistant
- Traditional Culture Result (Escherichia coli [1]; E. coli isolate 3 (Table 3)): Resistant
- Traditional Culture Result (Escherichia coli [1]; E. coli isolate 4 (Table 3)): Resistant
- Traditional Culture Result (Escherichia coli [1]; E. coli isolate 5 (Table 3)): Sensitive
- Traditional Culture Result (Escherichia coli [1]; E. coli isolate JJ1887): Resistant
- Ct at Sensitive Breakpoint (Escherichia coli [2]; E. coli isolate 1, Ct at control (average) 21.238): 20.351
- Molecular Antimicrobial Susceptibility Result (Escherichia coli [2]; E. coli isolate 1, at sensitive breakpoint): Resistant
- Ct at Sensitive Breakpoint (Escherichia coli [2]; E. coli isolate 2, Ct at control (average) 21.270): 19.988
- Molecular Antimicrobial Susceptibility Result (Escherichia coli [2]; E. coli isolate 2, at sensitive breakpoint): Resistant
- Ct at Sensitive Breakpoint (Escherichia coli [2]; E. coli isolate 3, Ct at control (average) 22.0995): 21.394
- Molecular Antimicrobial Susceptibility Result (Escherichia coli [2]; E. coli isolate 3, at sensitive breakpoint): Resistant
- Ct at Sensitive Breakpoint (Escherichia coli [2]; E. coli isolate 4, Ct at control (average) 17.5733): 17.68
- Molecular Antimicrobial Susceptibility Result (Escherichia coli [2]; E. coli isolate 4, at sensitive breakpoint): Resistant
- Ct at Sensitive Breakpoint (Escherichia coli [2]; E. coli isolate 5, Ct at control (average) 21.0933): 33.02
- Molecular Antimicrobial Susceptibility Result (Escherichia coli [2]; E. coli isolate 5, at sensitive breakpoint): Sensitive (Antimicrobial wells with pathogen load detected below the control wells (typically >2 cycle thresholds later) may be reported as Sensitive)

SMILES: C[C@@H]1O[C@@H]1P(=O)(O)O [Fosfomycin]
- Molecular Antibiotic Susceptibility Result [3, 5]: Sensitive (Antimicrobial wells with pathogen load detected below the control wells (typically >2 cycle thresholds later) may be reported as Sensitive)
- Ct ([3]; E. coli, clinical sample of r10-r24, Ct Control Avg 18.112): 28.111
- Molecular Antibiotic Susceptibility Result [3, 6]: Sensitive (Antimicrobial wells with pathogen load detected below the control wells (typically >2 cycle thresholds later) may be reported as Sensitive)
- Ct ([3]; E. coli, clinical sample of r158-r172, Ct Control Avg 20.146): 30.261
- Molecular Antibiotic Susceptibility Result [3, 7]: Sensitive (Antimicrobial wells with pathogen load detected below the control wells (typically >2 cycle thresholds later) may be reported as Sensitive)
- Ct ([3]; E. faecalis, clinical sample of r93-r99, Ct Control Avg 22.987): 35.358
- Molecular Antibiotic Susceptibility Result [3, 8]: sensitive
- Ct ([3]; E. faecalis, clinical sample of r100-r106, Ct Control Avg 23.073): 36.898
- Molecular Antibiotic Susceptibility Result [3, 9]: Resistant
- Ct ([3]; E. faecalis, clinical sample of r107-r113, Ct Control Avg 22.144): 20.142
- Molecular Antibiotic Susceptibility Result [3, 10]: Sensitive (Antimicrobial wells with pathogen load detected below the control wells (typically >2 cycle thresholds later) may be reported as Sensitive)
- Ct ([3]; E. faecalis, clinical sample of r114-r120, Ct Control Avg 20.822): 30.598
- Molecular Antibiotic Susceptibility Result [3, 11]: Sensitive (Antimicrobial wells with pathogen load detected below the control wells (typically >2 cycle thresholds later) may be reported as Sensitive)
- Ct ([3]; E. faecalis, clinical sample of r151-r157, Ct Control Avg 20.56): 37.968
- Molecular Antibiotic Susceptibility Result [3, 12]: Sensitive (Antimicrobial wells with pathogen load detected below the control wells (typically >2 cycle thresholds later) may be reported as Sensitive)
- Ct ([3]; K. aerogenes, clinical sample of r136-r150, Ct Control Avg 19.994): 25.008
- Molecular Antibiotic Susceptibility Result [3, 13]: Resistant
- Ct ([3]; K. pneumoniae, clinical sample of r121-r135, Ct Control Avg 24.272): 18.711
- Molecular Antibiotic Susceptibility Result [3, 14]: Sensitive (Antimicrobial wells with pathogen load detected below the control wells (typically >2 cycle thresholds later) may be reported as Sensitive)
- Ct ([3]; M. morganii, clinical sample of r55-r69, Ct Control Avg 28.86): 31.935
- Molecular Antibiotic Susceptibility Result [3, 15]: Sensitive (Antimicrobial wells with pathogen load detected below the control wells (typically >2 cycle thresholds later) may be reported as Sensitive)
- Ct ([3]; M. morganii, clinical sample of r70-r84, Ct Control Avg 27.053): 37.955
- Molecular Antibiotic Susceptibility Result [3, 16]: Sensitive (Antimicrobial wells with pathogen load detected below the control wells (typically >2 cycle thresholds later) may be reported as Sensitive)
- Ct ([3]; P. mirabilis, clinical sample of r25-r39, Ct Control Avg 26.064): 27.051
- Molecular Antibiotic Susceptibility Result [3, 17]: Sensitive (Antimicrobial wells with pathogen load detected below the control wells (typically >2 cycle thresholds later) may be reported as Sensitive)
- Ct ([3]; P. mirabilis, clinical sample of r40-r54, Ct Control Avg 26.987): 31.981
- Traditional Culture Results (Escherichia coli [1]; E. coli #1 - WDCM 00090 - 6.2×E3): Sensitive
- Traditional Culture Results (Escherichia coli [1]; E. coli #2 - WDCM 00090 - 6.2×E3): Sensitive
- Molecular Antibiotic Susceptibility Result [4, 5]: Sensitive (Antimicrobial wells with pathogen load detected below the control wells (typically >2 cycle thresholds later) may be reported as Sensitive)
- Ct ([4]; E. coli, clinical sample of r10-r24, Ct control avg 12.97): 25.481
- Molecular Antibiotic Susceptibility Result [4, 6]: Sensitive (Antimicrobial wells with pathogen load detected below the control wells (typically >2 cycle thresholds later) may be reported as Sensitive)
- Ct ([4]; E. coli, clinical sample of r158-r172, Ct control avg 12.894): 27.932
- Molecular Antibiotic Susceptibility Result [4, 7]: Sensitive (Antimicrobial wells with pathogen load detected below the control wells (typically >2 cycle thresholds later) may be reported as Sensitive)
- Ct ([4]; E. faecalis, clinical sample of r93-r99, Ct control avg 22.011): 30.578
- Molecular Antibiotic Susceptibility Result [4, 8]: sensitive
- Ct ([4]; E. faecalis, clinical sample of r100-r106, Ct control avg 21.027): 33.882
- Molecular Antibiotic Susceptibility Result [4, 9]: Resistant
- Ct ([4]; E. faecalis, clinical sample of r107-r113, Ct control avg 20.529): 19.527
- Molecular Antibiotic Susceptibility Result [4, 10]: Sensitive (Antimicrobial wells with pathogen load detected below the control wells (typically >2 cycle thresholds later) may be reported as Sensitive)
- Ct ([4]; E. faecalis, clinical sample of r114-r120, Ct control avg 20.909): 27.178
- Molecular Antibiotic Susceptibility Result [4, 11]: Sensitive (Antimicrobial wells with pathogen load detected below the control wells (typically >2 cycle thresholds later) may be reported as Sensitive)
- Ct ([4]; E. faecalis, clinical sample of r151-r157, Ct control avg 18.551): 32.048
- Molecular Antibiotic Susceptibility Result [4, 12]: Sensitive (Antimicrobial wells with pathogen load detected below the control wells (typically >2 cycle thresholds later) may be reported as Sensitive)
- Ct ([4]; K. aerogenes, clinical sample of r136-r150, Ct control avg 13.854): 19.581
- Molecular Antibiotic Susceptibility Result [4, 13]: Resistant
- Ct ([4]; K. pneumoniae, clinical sample of r121-r135, Ct control avg […]): 14.895
- Molecular Antibiotic Susceptibility Result [4, 14]: Sensitive (Antimicrobial wells with pathogen load detected below the control wells (typically >2 cycle thresholds later) may be reported as Sensitive)
- Ct ([4]; M. morganii, clinical sample of r55-r69, Ct control avg 12.09): 18.368
- Molecular Antibiotic Susceptibility Result [4, 15]: Sensitive (Antimicrobial wells with pathogen load detected below the control wells (typically >2 cycle thresholds later) may be reported as Sensitive)
- Ct ([4]; M. morganii, clinical sample of r70-r84, Ct control avg 11.677): 28.123
- Molecular Antibiotic Susceptibility Result [4, 16]: Sensitive (Antimicrobial wells with pathogen load detected below the control wells (typically >2 cycle thresholds later) may be reported as Sensitive)
- Ct ([4]; P. mirabilis, clinical sample of r25-r39, Ct control avg 11.801): 26.9
- Molecular Antibiotic Susceptibility Result [4, 17]: Sensitive (Antimicrobial wells with pathogen load detected below the control wells (typically >2 cycle thresholds later) may be reported as Sensitive)
- Ct ([4]; P. mirabilis, clinical sample of r40-r54, Ct control avg 10.06): 27.935
